In experiment [1] the target is T1, ICRAC current (CRAC ion channels), RBL-2H3 cells (Rattus norvegicus, UniProt Q5M848).
T1 construct: endogenous in cells; host or cells: RBL-2H3 (rat basophilic leukemia cells)
As to the kind of experiment: Automated patch clamp (Qpatch) inhibition of ICRAC current in RBL-2H3 cells. The experiment is classed as cell-based. To be noted: compound at 100 nM, method calculates % ICRAC inhibition. As to the method:
Automated patch clamp experiments are conducted with the QPatch 16 (Sophion Bioscience, Ballerup, Denmark) at room temperature (21-25° C.). Immediately following the establishment of giga-seal whole-cell configuration, the cells membrane potential is clamped at 0 mV. Voltage ramps of 50 ms duration spanning the voltage range of −100 to +100 mV are then stimulated at a rate of 0.33 Hz. Currents are filtered at 2.9 kHz and digitized at 200 μs intervals. Capacitive currents and series resistance are determined and corrected before each voltage ramp using the automatic capacitance compensation.
RBL-2H3 are grown in DMEM media supplemented with 10% fetal bovine serum, penicillin 100 U/ml and streptomycin […] in an atmosphere of 95% air/5% CO2. Cells are grown to confluence in 175 cm^2 tissue culture flask. On the experimental day, cells harvested with 0.25% trypsin/0.02% EDTA and resuspended in extracellular solution at density of 5×10^6 cells/ml.
The intracellular solution contains Cs-Glutamate 90 mM; NaCl 8 mM; MgCl2 3 mM; CsCl 20 mM; CsBAPTA 20 mM; HEPES 10 mM; InsP3 0.02 mM; pH=7.2 adjusted with CsOH.
The extracellular solution contains NMDGCl 120 mM; KCl 5.4 mM; CsCl 10 mM; CaCl2 10 mM; MgCl2 1 mM; HEPES 10 mM; Glucose 5.5 mM; at pH=7.4 adjusted with HCl.
ICRAC currents are measured using 50 msec voltage ramps between −100 mV to +100 mV. The voltage ramps are stimulated every 3 seconds for at least 570 seconds. The maximum ICRAC current is allowed to develop for at least 135 seconds. Compounds diluted in extracellular solutions are then applied twice, 30 seconds apart. After incubating the cells with compound for 435 seconds, a reference solution is applied at the end of the experiment. The reference solution is a Ca^2+ free extracellular solution.
Off-line analysis with the Qpatch software is used to plot the current value at −80 mV for each ramp trace against time. The resulting current versus time data is then exported into a Microsoft Excel spreadsheet. The ICRAC membrane currents are separated from the cells basal background currents by either subtracting out the average membrane current values during the first 1-3 traces, or the average membrane current values obtained with the reference solution at the end of the experiment. The % ICRAC inhibition in each cell is calculated by comparing the amount of current just prior to the first compound addition to the amount of current after the cells has been perfused with the compound for at least 400 seconds.

In experiment [2] the test system is IL-2 production in Jurkat T-cells. In words: Inhibition of IL-2 production, Jurkat/PHA/1% FBS, ELISA. The class given is cell-based. Particulars: Homo sapiens, read-out: IL-2 inhibition Jurkat/PHA/1% FBS IC50 (nM), PHA 2.5 μg/mL, 20 hours. As to the method: JurkaT-cells were placed in a 96 well plate (0.5 million cells per well in 1% FBS medium), and then a test compound of this invention was added at different concentrations. After 10 minutes, the cells were activated with PHA (final concentration 2.5 μg/mL) and incubated for 20 hours at 37° C. under 5% CO2. The final volume was 200 μL. Following incubation, the cells were centrifuged, and the supernatants collected and stored at −70° C. prior to assaying for IL-2 production. A commercial ELISA kit (IL-2 Eli-pair, Diaclone Research, Besancon, France) was used to detect production of IL-2, from which dose response curves were obtained. The IC50 value was calculated as the concentration at which 50% of maximum IL-2 production after stimulation was inhibited versus a non-stimulation control.
Background: An ELISA detects its analyte on a solid surface through an enzyme-linked reagent.

T1 sequence (Q5M848 whole entry): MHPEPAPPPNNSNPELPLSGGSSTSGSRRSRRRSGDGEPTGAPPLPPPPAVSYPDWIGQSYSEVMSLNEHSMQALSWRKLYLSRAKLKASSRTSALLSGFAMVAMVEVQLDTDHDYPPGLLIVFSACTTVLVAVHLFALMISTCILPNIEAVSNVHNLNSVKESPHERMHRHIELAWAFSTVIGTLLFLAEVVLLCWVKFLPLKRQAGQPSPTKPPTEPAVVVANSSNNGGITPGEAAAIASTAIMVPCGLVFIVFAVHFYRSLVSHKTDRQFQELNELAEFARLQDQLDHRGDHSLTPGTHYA

As usually defined, the inhibition is the drop in the measured response relative to a control, in per cent. In the case of `CCc1sc(-c2cnc(C)cn2)nc1-c1ccc(C(=O)Nc2cnc(C)cc2C)cc1` [Compound 5], the inhibition at 0.1 µM in experiment [1] is 40%. Besides, the IC50 in experiment [2] was determined as 32 nM.
Consider `Cc1ccc(-c2nc(-c3ccc(C(=O)Nc4c(F)cccc4F)cc3)c(C)s2)cn1` [Compound 1], for which the inhibition at 0.1 µM in experiment [1] is 80%. In addition, the IC50 in experiment [2] was found to be 27 nM.
Regarding `Cc1ccncc1C(=O)Nc1ccc(-c2cc(-c3nnn(C)n3)ccc2Cl)cn1` [Compound 4, N-(5-(2-chloro-5-(2-methyl-2H-tetrazol-5-yl)phenyl)pyridin-2-yl)-4-methylnicotinamide], the inhibition at 0.1 µM in experiment [1] is 36%.
Regarding `Cc1cc(C)c(NC(=O)c2ccc(-c3cc(-c4nnn(C)n4)ccc3Cl)cc2)cn1` [Compound 2, 2′-chloro-N-(4,6-dimethylpyridin-3-yl)-5′-(2-methyl-2H-tetrazol-5-yl)-[1,1′-biphenyl]-4-carboxamide], the inhibition at 0.1 µM in experiment [1] was 61%. In addition, the IC50 in experiment [2] stood at 33 nM.
In the case of `Cc1cc(C)c(NC(=O)c2ccc(-c3cc(-c4nnn(C)n4)ccc3C)cc2)cn1` [Compound 3, N-(4,6-dimethylpyridin-3-yl)-2′-methyl-5′-(2-methyl-2H-tetrazol-5-yl)-[1,1′-biphenyl]-4-carboxamide], in experiment [1], the inhibition at 0.1 µM was 36%. The IC50 in experiment [2] stood at 46 nM.
For the compound `Cn1cc(-c2ccc(Cl)c(-c3cnc(NC(=O)c4cccc(F)c4F)cn3)c2)cn1` [Compound 7, N-(5-(2-chloro-5-(1-methyl-1H-pyrazol-4-yl)phenyl)pyrazin-2-yl)-2,3-difluorobenzamide], the inhibition at 0.1 µM in experiment [1] was 98%. For the same compound, in experiment [2], the IC50 is 10 nM.
The matching figures for `CCc1sc(-c2cc(C)on2)nc1-c1ccc(NC(=O)c2cncc(Cl)c2C)nc1` [Compound 9]: 73% and 10 nM.
On to `Cn1cc(-c2ccc(Cl)c(-c3cnc(NC(=O)c4ccc(F)cc4F)cn3)c2)cn1` [Compound 8, N-(5-(2-chloro-5-(1-methyl-1H-pyrazol-4-yl)phenyl)pyrazin-2-yl)-2,4-difluorobenzamide], for which the inhibition at 0.1 µM in experiment [1] is 82%. For the same compound, the IC50 in experiment [2] came out at 14 nM.
As for `CCc1sc(-c2cc(C)on2)nc1-c1ccc(C(=O)Nc2cncnc2C)cc1` [Compound 6], the inhibition at 0.1 µM in experiment [1] is 93%. In addition, in experiment [2], the IC50 came out at 38 nM.

The values are drawn from US20140242099A1 (Synta Pharmaceuticals Corp., priority 2011, published 2014).
